Here are results for 35 molecules from US10093660B2, “Sulfoximine substituted quinazolines for pharmaceutical compositions” (EVOTEC INTERNATIONAL GMBH, priority 2013, dated 2018).

By IC50 is commonly meant the point on the concentration scale where inhibition reaches its midpoint.

The target in one assay is MNK2a (Homo sapiens (Human), UniProt Q9HBH9). Nature of the assay: MNK2a in vitro kinase assay (Assay 2), ADP-Glo. In kind it is biochemical. The conditions noted are these: assay 2; read-out: MNK2 IC50. The source says: B. MNK2a In Vitro Kinase Assay (Assay 2)
For orientation: ADP-Glo first removes unused ATP, then detects ADP through luciferase.

The target in another assay is MNK1a (Homo sapiens (Human), UniProt Q9BUB5). Nature of the assay: MNK1 in vitro kinase assay (Assay 3), Z'-LYTE. Particulars: for inhibition at 1 µM: compound concentration of 1 μM, read-out: MNK1 % INH. Format: biochemical.
Chain of MNK1a (Q9BUB5 other isoform, or with tags, fused parts or gaps): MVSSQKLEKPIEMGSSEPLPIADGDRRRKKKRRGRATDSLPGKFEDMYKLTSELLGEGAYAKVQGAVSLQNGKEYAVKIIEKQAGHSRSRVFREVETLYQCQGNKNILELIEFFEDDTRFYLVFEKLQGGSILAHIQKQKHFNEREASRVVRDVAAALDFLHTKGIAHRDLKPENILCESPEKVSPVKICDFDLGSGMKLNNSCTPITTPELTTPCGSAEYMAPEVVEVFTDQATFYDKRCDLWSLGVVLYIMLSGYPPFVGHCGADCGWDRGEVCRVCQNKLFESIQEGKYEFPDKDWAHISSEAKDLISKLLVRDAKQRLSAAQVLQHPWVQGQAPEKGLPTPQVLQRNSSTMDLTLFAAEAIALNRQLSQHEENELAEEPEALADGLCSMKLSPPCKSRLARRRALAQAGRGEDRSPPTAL

Chain of MNK2a (Q9HBH9 whole entry): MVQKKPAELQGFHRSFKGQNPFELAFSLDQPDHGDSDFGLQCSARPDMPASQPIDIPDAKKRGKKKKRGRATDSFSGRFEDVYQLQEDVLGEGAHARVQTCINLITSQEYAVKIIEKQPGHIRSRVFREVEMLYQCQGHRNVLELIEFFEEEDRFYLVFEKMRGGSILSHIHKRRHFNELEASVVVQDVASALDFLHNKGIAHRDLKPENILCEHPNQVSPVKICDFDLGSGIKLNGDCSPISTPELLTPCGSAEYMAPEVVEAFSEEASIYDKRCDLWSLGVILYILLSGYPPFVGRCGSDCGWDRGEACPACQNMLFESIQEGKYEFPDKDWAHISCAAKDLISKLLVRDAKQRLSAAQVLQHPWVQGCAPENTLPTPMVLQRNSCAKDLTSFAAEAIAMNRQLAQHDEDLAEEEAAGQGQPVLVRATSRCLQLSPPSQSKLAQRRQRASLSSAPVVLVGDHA

On to `CO[C@@H]1CN(C(C)=O)C[C@H]1Oc1ncccc1Nc1ncnc2cc(N=S(C)(C)=O)cc(C)c12` [Example 6.3], for which, at MNK2a, the IC50 was determined as 584 nM. On MNK1a, the inhibition at 1 µM was 9%.

With `Cc1cc(N=S(C)(=O)C(C)(C)C)cc2ncnc(Nc3ccc(F)cc3O[C@H]3COC[C@@H]3O)c12` (stereo partly drawn) [Example 2.79], the IC50 on MNK2a was 10 nM. Moreover, at MNK1a, the inhibition at 1 µM is 85%.

Take `Cc1cc(N=S2(=O)CCCC2)cc2ncnc(Nc3cccnc3O[C@@H]3CNC[C@H]3O)c12` [Example 3.1]: the IC50 on MNK2a worked out at 29 nM. Besides, the inhibition at 1 µM at MNK1a stood at 93%.

Turning to `O=S1(=Nc2cc(Cl)c3c(Nc4cccnc4O[C@H]4COC[C@@H]4O)ncnc3c2)CCCC1` [Example 1.15], the IC50 on MNK2a turned out to be 3 nM. On MNK1a, the IC50 turned out to be 34 nM and the inhibition at 1 µM worked out at 103%.

Take `CO[C@@H]1CN(CC(F)F)C[C@H]1Oc1ncccc1Nc1ncnc2cc(N=S(C)(C)=O)cc(C)c12` [Example 5.2]: the IC50 on MNK2a amounted to 72 nM. The inhibition at 1 µM on MNK1a was 56%.

Turning to `O=S1(=Nc2cc(Cl)c3c(Nc4ccc(Cl)nc4O[C@H]4COC[C@@H]4O)ncnc3c2)CCC1` [Example 1.16], at MNK2a, the IC50 worked out at 2 nM. For the same molecule, the inhibition at 1 µM on MNK1a worked out at 96%.

Turning to `O=S1(=Nc2cc(Cl)c3c(Nc4ccc(F)cc4O[C@@H]4COC[C@@H]4O)ncnc3c2)CCC1` (single isomer, unassigned) [Example 1.34], the IC50 on MNK2a amounted to 3 nM. Further, the inhibition at 1 µM at MNK1a was 97%.

On to `CO[C@@H]1COC[C@@H]1Oc1ncccc1Nc1ncnc2cc(N=S3(=O)CCCC3)cc(C)c12` (single isomer, unassigned) [Example 14.2], for which the IC50 on MNK2a is 10 nM. Also, at MNK1a, the inhibition at 1 µM was found to be 86%.

`CC[S@@](C)(=O)=Nc1cc(C)c2c(Nc3ccc(F)cc3O[C@H]3COC[C@@H]3O)ncnc2c1` (single isomer, unassigned) [Example 14.12]: the IC50 at MNK2a is 15 nM. For the same molecule, the inhibition at 1 µM at MNK1a was found to be 86%.

Take `Cc1cc(N=S(C)(C)=O)cc2ncnc(Nc3cccnc3O[C@@H]3COC[C@@H]3O)c12` (racemic) [Example 2.4]: the IC50 at MNK2a worked out at 17 nM. For the same molecule, the inhibition at 1 µM at MNK1a is 93%.

For `CO[C@@H]1CN(C(C)=O)C[C@H]1Oc1ncccc1Nc1ncnc2cc(N=S3(=O)CCCC3)cc(C)c12` [Example 6.8], the IC50 on MNK2a came to 128 nM. Further, the inhibition at 1 µM at MNK1a amounted to 41%.

In the case of `CC(=O)N1C[C@@H](O)[C@H](Oc2cc(F)ccc2Nc2ncnc3cc(N=S(C)(C)=O)cc(C)c23)C1` [Example 2.102], on MNK2a, the IC50 came out at 31 nM. Further, on MNK1a, the inhibition at 1 µM was 74%.

With `CCS(C)(=O)=Nc1cc(C)c2c(Nc3ccc(F)cc3O[C@H]3COC[C@@H]3O)ncnc2c1` (stereo partly drawn) [Example 2.37], at MNK2a, the IC50 worked out at 4 nM. On MNK1a, the inhibition at 1 µM is 93%.

For `CC1CCS(=O)(=Nc2cc(F)c3c(Nc4ccc(F)cc4O[C@H]4COC[C@@H]4O)ncnc3c2)C1` (stereo partly drawn) [Example 2.80], on MNK2a, the IC50 is 4 nM. For the same molecule, the inhibition at 1 µM on MNK1a is 96%.

In the case of `Cc1cc(N=S(C)(=O)C(C)C)cc2ncnc(Nc3ccc(F)cc3O[C@@H]3COC[C@@H]3O)c12` (mixture of isomers) [Example 2.71], on MNK2a, the IC50 is 6 nM. In addition, the inhibition at 1 µM on MNK1a was 94%.

In the case of `CO[C@@H]1CN(C)C[C@H]1Oc1cc(F)ccc1Nc1ncnc2cc(N=S3(=O)CCCC3)cc(C)c12` [Example 11.2], at MNK2a, the IC50 came out at 31 nM. The inhibition at 1 µM at MNK1a came out at 75%.

For the molecule `Cc1cc(N=S(C)(C)=O)cc2ncnc(Nc3ccc(F)cc3O[C@@H]3CNC[C@H]3O)c12` [Example 3.4], the IC50 at MNK2a came to 21 nM. Besides, the inhibition at 1 µM at MNK1a is 82%.

In the case of `CO[C@@H]1C=C[C@@H](Oc2cc(F)ccc2Nc2ncnc3cc(N=S(C)(C)=O)cc(C)c23)CO1` (racemic) [Example 13.1], the IC50 on MNK2a was found to be 6 nM. Further, the inhibition at 1 µM at MNK1a is 96%.

As to `CO[C@@H]1CN(C)C[C@H]1Oc1ncccc1Nc1ncnc2cc(N=S(C)(C)=O)cc(C)c12` [Example 11.4], the IC50 at MNK2a was determined as 59 nM. In addition, at MNK1a, the inhibition at 1 µM came to 56%.

Take `O=S1(=Nc2cc(Cl)c3c(Nc4ccc(F)cc4O[C@H]4COC[C@@H]4O)ncnc3c2)CCC1` [Example 1.7]: the results for the IC50 on MNK2a and against MNK1a were 2 nM and 18 nM, respectively.

With `CS(C)(=O)=Nc1cc(C(F)(F)F)c2c(Nc3ccc(F)cc3O[C@H]3COC[C@@H]3O)ncnc2c1` [Example 1.12], the IC50 at MNK2a is 4 nM. For the same molecule, the inhibition at 1 µM on MNK1a came to 88%.

On to `Cc1cc(N=S2(=O)CCCC2)cc2ncnc(Nc3ccc(F)cc3O[C@@H]3CNC[C@H]3O)c12` [Example 3.5], for which the results for the IC50 at MNK2a and on MNK1a were 6 nM and 97 nM, respectively.

Turning to `Cc1cc(N=S2(=O)CCCC2)cc2ncnc(Nc3ccc(F)cc3O[C@H]3COC[C@@H]3O)c12` [Example 2.29], at MNK2a, the IC50 amounted to 2 nM. In addition, at MNK1a, the 50% inhibitory concentration (IC50) was found to be 40 nM and the inhibition at 1 µM turned out to be 104%.

Take `CO[C@@H]1CN(CC(F)F)C[C@H]1Oc1cc(F)ccc1Nc1ncnc2cc(N=S3(=O)CCCC3)cc(C)c12` [Example 5.1]: the values for the IC50 on MNK2a and on MNK1a were 16 nM and 373 nM, respectively.

For the molecule `COc1cc(N=S(C)(=O)C2CC2)cc2ncnc(Nc3ccc(F)cc3O[C@H]3COC[C@H]3O)c12` (mixture of isomers) [Example 9.17], on MNK2a, the IC50 is 33 nM. Besides, the inhibition at 1 µM at MNK1a was 92%.

Regarding `Cc1cc(N=S2(=O)CCCC2)cc2ncnc(Nc3ccc(F)cc3O[C@@H]3COC[C@@H]3OCc3ccccc3)c12` [Example 13.3], the IC50 at MNK2a worked out at 15 nM. Further, the inhibition at 1 µM at MNK1a is 79%.

On to `CO[C@@H]1COC[C@@H]1Oc1cc(F)ccc1Nc1ncnc2cc(N=S(C)(C)=O)cc(C)c12` [Example 14.8], for which the values for the IC50 on MNK2a and against MNK1a were 1 nM and 80 nM, respectively.

For the molecule `Cc1cc(N=S(C)(=O)c2ccccc2)cc2ncnc(Nc3ccc(F)cc3O[C@H]3COC[C@@H]3O)c12` (stereo partly drawn) [Example 2.75], the IC50 at MNK2a stood at 8 nM; against MNK1a, 95 nM.

In the case of `CCN1C[C@@H](OC)[C@H](Oc2cc(F)ccc2Nc2ncnc3cc(N=S4(=O)CCCC4)cc(C)c23)C1` [Example 4.3], on MNK2a, the IC50 was 40 nM. In addition, the inhibition at 1 µM at MNK1a worked out at 54%.

For the molecule `Cc1cc(N=S(C)(C)=O)cc2ncnc(Nc3cccnc3O[C@@H]3CN(S(C)(=O)=O)C[C@H]3O)c12` [Example 2.20], at MNK2a, the IC50 was 27 nM. Further, the inhibition at 1 µM at MNK1a is 77%.

Consider `O=S1(=Nc2cc(Cl)c3c(Nc4ccc(Cl)nc4O[C@H]4COC[C@@H]4O)ncnc3c2)CCCC1` [Example 1.17], for which, on MNK2a, the IC50 is 2 nM. Further, the inhibition at 1 µM at MNK1a was found to be 103%.

`Cc1cc(N=S(C)(=O)c2cccnc2)cc2ncnc(Nc3ccc(F)cc3O[C@H]3COC[C@@H]3O)c12` (stereo partly drawn) [Example 2.81]: the IC50 at MNK2a was 14 nM. Moreover, the inhibition at 1 µM at MNK1a amounted to 91%.

With `Cc1cc(N=S(C)(=O)C2CCOCC2)cc2ncnc(Nc3ccc(F)cc3O[C@H]3COC[C@@H]3O)c12` (stereo partly drawn) [Example 2.78], the IC50 stood at 11 nM at MNK2a and 107 nM against MNK1a.

As for `CO[C@@H]1CNC[C@H]1Oc1ncccc1Nc1ncnc2cc(N=S3(=O)CCCC3)cc(C)c12` [Example 4.4], on MNK2a, the IC50 was 11 nM. Also, the inhibition at 1 µM at MNK1a was found to be 93%.

With `Cc1cc(N=S2(=O)CCCC2)cc2ncnc(Nc3ccc(F)cc3O[C@@H]3COC[C@@H]3O)c12` (single isomer, unassigned) [Example 14.5], at MNK2a, the IC50 came to 3 nM. In addition, the inhibition at 1 µM at MNK1a stood at 99%.
